From patent US6680293B2, “Use of isolated domains of type IV collagen to modify cell and tissue interactions” (Kansas University Medical Center, priority 1994, dated 2004) come the findings set out here.

Each structure is given as a SMILES string.

For assay [1], the system named is Hydra cell aggregates. The assay can be described thus: Hydra cell aggregate development / morphogenesis blocking. Type of assay: cell-based, Hydra vulgarie. Particulars: 10 μM, Time 0 to 96 hr. How it is done:
All experiments utilized Hydra vulgarie (previously named Hydra attenuata). Animals were cultured as described previously (Sarras et al., 1991a, supra) and were not fed for 24 hr prior to use.
Hydra cell aggregates were prepared according to Gierer et al., (1972, supra) with modification described by Sans et al., (1993, supra). They were incubated either in microtiter plates (NUNS, Denmark) with one aggregate/well/10 μl incubation solution or in 96-well plates (Falcon) with three to five aggregates/well/50 μl incubation solution. Antibiotics were used throughout all steps of aggregate preparation to assure that the aggregates used in this study were free of any symbionic bacterial populations (Sarra et al., 1993, supra). […] By 24 hr of cell pellet formation, hydra cell aggregates develop septate junctions between epithelial cells (Wood et at., 1980. J. Ultrastruc. Res. 70:104-117). These junctions prevent the introduction of macromolecules from medium into mesoglea. […]
Criteria for morphogenesis was as follows. […] The percentage of aggregates-with head and tentacle structures at 96 hr of development was calculated and data for each group from different experiments were pooled and plotted. […] Using an ANOVA statistical test, a P value <0.05 was taken as the level of significant difference in all groups analyzed. […]

Assay [2] concerns hydra cells. Description: Inhibition of DNA synthesis in hydra cell aggregates. Type of assay: cell-based, Hydra vulgarie. Particulars: 10 μM, Time 0 to 96 hr.

For `NC(=O)NO` [HU, hydroxyurea], the “morphogenesis of hydra cell aggregates” value in assay [1] was “did not inhibit”. In addition, in assay [2], the DNA synthesis entry is listed as “completely blocked”.
